Laboratory results published in patent publication US20230146455A1, “TREATMENT OF INFLAMMATORY DISEASES WITH PEPTIDES AND PHARMACEUTICAL COMPOSITIONS” (Yuyu Pharma, Inc., priority 2020, published 2023).
Converted amounts (≈) assume the structure as drawn. “Also recorded” adds a separate entry of the source. Like-named read-outs stand apart in the source and are kept apart here. Where a SMILES comes first, the peptide text is derived from it. [ ]: non-standard residue; d: D form. The star is where a group is joined. Pyrrolidin1yl(2S-Ac) = CC(=O)[C@@H]1CCCN1*; Hyp = O=C(O)[C@@H]1C[C@@H](O)CN1; NH(CH2)2O(CH2)2NH2 = NCCOCCN*; Pyrrolidide = C1CCN(*)C1; X1 = CCN(C(C)C)*; NMeEt = CCN(C)*

Legend:
[1] = Apparent permeability, 21 day cultured Caco-2 cell monolayer, bi-directional (Example 7); type: in vitro ADME; settings: human; for recovery at 120 min, 2 μM: Caco-2, 2 μM
Procedure: (§1) 10 mM stock solution of test compound was prepared in DMSO. 10 mM stock was diluted with 100% DMSO to prepare 0.2 mM, 0.2 mM stock was diluted with HBSS buffer to a final concentration of 2 μM.
(§2) Add 250 μL of DMEM to the basal compartment of 96 well multi-screen Caco-2 plates and seed 12000 cells/well (0.16×10^6 cells/ml) in all the apical wells required and 2 wells with only media as blank without cells. Place the Caco-2 plate in CO2 incubator at 37° C. for proliferation of cells.
(§3) The utilized media was replenished every alternate day by fresh medium. On 21st day, utilized medium was removed and washed twice with HBSS Buffer and incubated with HBSS buffer 30 min in incubator and initiated the assay.
(§4) 75 μL of test compound was added to apical wells and 250 μL of HBSS buffer with 1% DMSO was added to basal wells. Samples were collected at 120 min and processed as stated below.
(§5) 250 μL of test compound was added to basal wells and 75 μL of HBSS buffer with 1% DMSO was added to apical wells. Samples were collected at 120 min and processed as stated below.
(§6) Single point calibration curve in HBSS buffer was used. 100 μL of supernatant was diluted with 200 μL of water and submitted for LC-MS/MS analysis.
(§7) Efflux ratio=Papp of basal to apical samples/Papp of apical to basal samples
(§8) Recovery: {(dQ of Apical+dQ of Basal)/Standard dQ}*100

[2] = tested on: Caco-2 cells monolayer; test: as above; type: in vitro ADME
Procedure: as §1, §2, §3, §4, §5, §6, §7, §8

[3] = Solubility (in water; in saline); type: physicochemical; settings: for solubility: water
[4] = tested on: IL-6 cytokine release in poly I:C stimulated primary human corneal epithelial cells; test: Soluble IL-6 cytokine release in poly I:C stimulated primary human corneal epithelial cells by ELISA (Example 2); type: cell-based; settings: 25 μg/mL poly I:C, 24 hours; for Poly I:C induced IL-6 cytokine release (in words): 30, 10, 1, 0.1, 0.01, 0.001 μM
Procedure: Assay protocol as shown below was used to determine the significant effect of test compounds. The data was statistically analyzed by one-way ANOVA with a Bonferroni post test comparing all the columns. The significance was represented by the p value.
Selected YDE peptides (YDE-093, -096, -100, -101, -102, -103, -104, -105, -106 and -107) were evaluated by assessing the soluble IL-6 cytokine release in poly I:C stimulated primary human corneal epithelial cells by ELISA (Biolegend, 430504).
Specifically, primary corneal epithelial cells (ATCC, ATCC PCS-700-010) were seeded on a 6-well culture plate containing the Corneal Epithelial Cell Basal Medium (ATCC, ATCC PCS-700-030) in the Corneal Epithelial Cell Growth Kit (ATCC, ATCC PCS-700-040) in an amount of 1.2×10^5 cells per well, which was then cultured for 24 hours under the conditions of 37° C. and 5% CO2. Then, cells were washed with 1×PBS and replaced with serum free medium which was then cultured for 2 hours under the conditions of 37° C. and 5% CO2.
After 2 hours, cells were treated with compounds at 6 differential concentrations (Hinokitiol/YDE peptides at 30, 10, 1, 0.1, 0.01, and 0.001 μM) with the DMSO final 0.5% and then cultured for 1 hour under the conditions of 37° C. and 5% CO2.
After 1 hour, cells were further treated with 25 μg/mL of poly I:C and cultured for 24 hours under the conditions of 37° C. and 5% CO2.
Following incubation, the supernatant was collected for IL-6 levels was assessed by Sandwich ELISA (Enzyme-linked immunosorbent assay) following manufacturer's instructions. The data was statistically analyzed by one-way ANOVA with a Bonferroni post-test comparing all the columns. The significance was represented by the p value.

[5] = tested on: IL-6 cytokine release in poly I:C stimulated primary human corneal epithelial cells; test: Soluble IL-6 cytokine release in poly I:C stimulated primary human corneal epithelial cells by ELISA (Example 6); type: cell-based
Source text: To determine the effect of compound by assessing the soluble IL-6 cytokine release in poly I:C stimulated primary human corneal epithelial cells by ELISA. • Test System: Primary Human Corneal Epithelial cells • Assay Format: 96-well plate format • Method of Detection: Enzyme-linked immunosorbent assay • Assay Controls: Hinokitiol Assay protocol as shown below was used to determine the significant effect of test compounds. The data was statistically analyzed by one-way ANOVA with a Bonferroni post test comparing all the columns. The significance was represented by the p value.

Solubility in Water [3] [µg/mL] | solubility [3] [µg/mL] | SMILES | Poly I:C induced IL-6 cytokine release (in words) [4] | tested concentrations with significant attenuation of IL-6 cytokine release [4] | also measured
– | – | CC(C)NCC(O)COc1cccc2ccccc12 (centres unmarked) [Propranolol, reference compound] | – | – | recovery at 120 min, 2 μM ([1]; 120 minutes, read-out: A to B % Recovery): 80.1%; recovery at 120 min, 2 μM ([1]; 120 minutes, read-out: B to A % Recovery): 90.3%; Papp A→B at 120 min, 2 μM ([1]; Caco-2, 2 μM, 120 minutes, average values, read-out: Papp Apical to Basal): 23.8 ×10⁻⁶ cm/s; Papp B→A at 120 min, 2 μM ([1]; Caco-2, 2 μM, 120 minutes, average values, read-out: Papp Basal to Apical): 37.1 ×10⁻⁶ cm/s; efflux ratio at 120 min, 2 μM ([1]; Caco-2, Papp B-A / Papp A-B): 1.56; Classification (Caco-2 Permeability) [2]: HIGH
10000 (≈ 9.62 mM) | – | CC(C)C[C@H](NC(=O)CNC(=O)[C@H](CC(C)C)NC(=O)[C@H](CCC(N)=O)NC(=O)CNC(=O)[C@@H]1C[C@@H](O)CN1)C(=O)N[C@@H](C)C(=O)NCC(=O)N1CCC[C@H]1C(=O)N[C@@H](CCCCN)C(=O)NCCOCCN [YDE-093] (H-[Hyp]GQLGLAGPK-{NH(CH2)2O(CH2)2NH2}) | attenuation of IL-6 release; also recorded: attenuate Poly I:C induced of IL-6 cytokine release in a dose dependent manner | – | Poly I:C induced IL-6 cytokine release (in words) [5]: attenuate Poly I:C induced of IL-6 cytokine release in a dose dependent manner; tested concentrations with significant attenuation of IL-6 cytokine release [5]: 30 μM, 10 μM, 1 μM and 0.1 μM
– | 10000 (≈ 14.9 mM) | CC(C)C[C@H](NC(=O)CNC(=O)[C@H](CC(=O)O)NC(=O)[C@H](CCC(N)=O)NC(=O)CNC(=O)[C@@H]1C[C@@H](O)CN1)C(=O)N[C@@H](C)C(=O)O [YDE-094, O*GQDGLA] (H-[Hyp]GQDGLA-OH) | – | – | –
– | 10000 (≈ 9.62 mM) | CC(C)C[C@H](NC(=O)CNC(=O)[C@H](CC(C)C)NC(=O)[C@H](CCC(N)=O)NC(=O)CNC(=O)[C@@H]1C[C@@H](O)CN1)C(=O)N[C@@H](C)C(=O)NCC(=O)N1CCC[C@H]1C(=O)N[C@@H](CCCCN)C(=O)NCCOCCN [YDE-096] (H-[Hyp]GQLGLAGPK-{NH(CH2)2O(CH2)2NH2}) | attenuation of IL-6 release; also recorded: attenuate Poly I:C induced of IL-6 cytokine release in a dose dependent manner | – | Poly I:C induced IL-6 cytokine release (in words) [5]: attenuate Poly I:C induced of IL-6 cytokine release in a dose dependent manner; tested concentrations with significant attenuation of IL-6 cytokine release [5]: 30 μM, 10 μM, 1 μM and 0.1 μM
10000 (≈ 12.2 mM) | – | CC(=O)[C@@H]1CCCN1C(=O)CNC(=O)[C@H](C)NC(=O)[C@H](CC(C)C)NC(=O)CNC(=O)[C@H](CC(C)C)NC(=O)[C@H](CCC(N)=O)NC(=O)CNC(=O)[C@@H]1C[C@@H](O)CN1 [YDE-100] (H-[Hyp]GQLGLAG-{Pyrrolidin1yl(2S-Ac)}) | attenuation of IL-6 release | 30 μM, and 10 μM | Poly I:C induced IL-6 cytokine release (in words) ([4]; listed as YDE100): attenuate Poly I:C induced IL-6 cytokine release in a dose dependent manner
10000 (≈ 11.7 mM) | – | CC(C)C[C@H](NC(=O)CNC(=O)[C@H](CC(C)C)NC(=O)[C@H](CCC(N)=O)NC(=O)CNC(=O)[C@@H]1C[C@@H](O)CN1)C(=O)N[C@@H](C)C(=O)NCC(=O)N1CCC[C@H]1C(=O)N(C)C [YDE-101] (H-[Hyp]GQLGLAGP-NMe2) | attenuation of IL-6 release | 30 μM, 10 μM, and 1 μM | Poly I:C induced IL-6 cytokine release (in words) ([4]; listed as YDE101): attenuate Poly I:C induced IL-6 cytokine release in a dose dependent manner
10000 (≈ 11.7 mM) | – | CCNC(=O)[C@@H]1CCCN1C(=O)CNC(=O)[C@H](C)NC(=O)[C@H](CC(C)C)NC(=O)CNC(=O)[C@H](CC(C)C)NC(=O)[C@H](CCC(N)=O)NC(=O)CNC(=O)[C@@H]1C[C@@H](O)CN1 [YDE-102] (H-[Hyp]GQLGLAGP-NHEt) | attenuation of IL-6 release | 30 μM, 10 μM, and 1 μM | Poly I:C induced IL-6 cytokine release (in words) ([4]; listed as YDE102): attenuate Poly I:C induced IL-6 cytokine release in a dose dependent manner
– | – | CCN(C)C(=O)[C@@H]1CCCN1C(=O)CNC(=O)[C@H](C)NC(=O)[C@H](CC(C)C)NC(=O)CNC(=O)[C@H](CC(C)C)NC(=O)[C@H](CCC(N)=O)NC(=O)CNC(=O)[C@@H]1C[C@@H](O)CN1 [YDE-103] (H-[Hyp]GQLGLAGP-NMeEt) | attenuation of IL-6 release | – | tested concentrations with significant attenuation of IL-6 cytokine release ([4]; listed as YDE103): 30 μM, 10 μM, 1 μM and 0.1 μM; Poly I:C induced IL-6 cytokine release (in words) ([4]; listed as YDE103): attenuate Poly I:C induced IL-6 cytokine release in a dose dependent manner
– | 10000 (≈ 11.5 mM) | CCN(C)C(=O)[C@@H]1CCCN1C(=O)CNC(=O)[C@H](C)NC(=O)[C@H](CC(C)C)NC(=O)CNC(=O)[C@H](CC(C)C)NC(=O)[C@H](CCC(N)=O)NC(=O)CNC(=O)[C@@H]1C[C@@H](O)CN1 [YDE-105] (H-[Hyp]GQLGLAGP-NMeEt) | – | – | tested concentrations with significant attenuation of IL-6 cytokine release ([4]; listed as YDE105): 30 μM, 10 μM, and 1 μM; Poly I:C induced IL-6 cytokine release (in words) ([4]; listed as YDE105): attenuate Poly I:C induced IL-6 cytokine release in a dose dependent manner
10000 (≈ 11.4 mM) | – | CC(C)C[C@H](NC(=O)CNC(=O)[C@H](CC(C)C)NC(=O)[C@H](CCC(N)=O)NC(=O)CNC(=O)[C@@H]1C[C@@H](O)CN1)C(=O)N[C@@H](C)C(=O)NCC(=O)N1CCC[C@H]1C(=O)N1CCCC1 [YDE-106] (H-[Hyp]GQLGLAGP-Pyrrolidide) | attenuation of IL-6 release | 30 μM, 10 μM, and 1 μM | Poly I:C induced IL-6 cytokine release (in words) ([4]; listed as YDE106): attenuate Poly I:C induced IL-6 cytokine release in a dose dependent manner
– | 10000 (≈ 11.2 mM) | CCN(C(=O)[C@@H]1CCCN1C(=O)CNC(=O)[C@H](C)NC(=O)[C@H](CC(C)C)NC(=O)CNC(=O)[C@H](CC(C)C)NC(=O)[C@H](CCC(N)=O)NC(=O)CNC(=O)[C@@H]1C[C@@H](O)CN1)C(C)C [YDE-107] (H-[Hyp]GQLGLAGP-X1) | attenuation of IL-6 release | 30 μM, 10 μM, and 1 μM | Poly I:C induced IL-6 cytokine release (in words) ([4]; listed as YDE107): attenuate Poly I:C induced IL-6 cytokine release in a dose dependent manner
